Experimental data reported in publication PMC5915086 (Oncotarget, 2018).
Entries after “also recorded” stand apart in the source; their conditions may differ.

How the values were obtained:
[1] = test system: BAF155 dimethylation in KMS-27 cells; assay: BAF155 dimethylation in MM cells, western blotting; type: cell-based, human
Protocol: (§4) The lysates were separated by SDS-polyacrylamide gel electrophoresis and transferred to a nitrocellulose membrane using an iBlot Transfer Stack and iBlot Gel Transfer Device (Thermo Fisher Scientific, Waltham, MA, USA). […] The membrane was incubated with ImmunoStar LD (Wako Pure Chemical Industries, Osaka, Japan), and signals were detected with an ImageQuant LAS-3000 imaging system (Fujifilm, Tokyo, Japan).

PRMT1 = molecular target: T1, PRMT1 (Homo sapiens, UniProt Q99873); assay: PRMT1 methyltransferase scintillation proximity assay; type: biochemical
T1 construct: 30–371; made in house
T1 sequence (Q99873 30-371): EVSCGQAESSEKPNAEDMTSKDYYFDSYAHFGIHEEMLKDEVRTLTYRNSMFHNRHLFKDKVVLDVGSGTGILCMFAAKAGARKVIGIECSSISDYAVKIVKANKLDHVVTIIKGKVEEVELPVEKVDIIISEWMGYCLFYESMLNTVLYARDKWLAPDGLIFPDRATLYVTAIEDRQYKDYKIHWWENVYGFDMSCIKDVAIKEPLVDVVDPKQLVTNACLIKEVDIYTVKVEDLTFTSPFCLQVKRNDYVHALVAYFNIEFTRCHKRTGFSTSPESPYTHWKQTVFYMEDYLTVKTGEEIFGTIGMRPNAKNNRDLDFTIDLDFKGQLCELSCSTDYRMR
Protocol: (§5) In the scintillation proximity assay (SPA), specific amounts of enzyme and biotinylated peptide substrate were mixed with the compound and the reaction was initiated by adding SAM. IC50 values were measured at the apparent Km concentrations of the substrate and SAM. The reaction was quenched by adding an equal volume of 7.5 M guanidine hydrochloride, and the reaction product was measured by SPA using FlashPlate Plus and TopCount NXT HTS plate reader (both from Perkin Elmer Life Sciences).

[2] = test system: BAF155 dimethylation in U266B1 cells; assay: BAF155 dimethylation in MM cells, western blotting; type: cell-based, human
Protocol: as §4

[3] = test system: dimethylation of BAF155 (PRMT4 substrate); assay: BAF155 dimethylation in HEK293 cells, western blotting; type: cell-based, human; settings: 3 days
Protocol: (§6) Graphs represent nonlinear curve fits of dimethyl-BAF155 and dimethyl-MED12 signal intensities normalized to total BAF155 or MED12, respectively. Data represent mean ± SEM of two independent experiments prepared in triplicate.
(§7) After incubation for 3 min at room temperature, sodium dodecyl sulfate (SDS) was added to a final concentration of 1%. […] Blots were blocked for 1 h in blocking buffer composed of 5% milk and 0.1% Tween 20 in phosphate-buffered saline (PBS) and then incubated overnight at 4°C in blocking buffer containing primary antibodies against MED12 (1:1000) (Abnova, Taipei, Taiwan; H00009968-A01), MED12 with asymmetrically dimethylated arginine (1:1000; gift from Dr. Mark Bedford and Cell Signaling Technology, Danvers, MA, USA), BAF155 (1:500) (Santa Cruz Biotechnology, Santa Cruz, CA, USA; sc32763), or R1064-dimethylated BAF155 (1:2000) (Millipore; ABE1339). […] The signal was detected on an Odyssey scanner (LI-COR Biosciences) at 800 and 700 nm.

PRMT8 = molecular target: T2, PRMT8 (Homo sapiens, UniProt Q9NR22); assay: PRMT8 methyltransferase scintillation proximity assay; type: biochemical
T2 construct: 1–394; made in house
T2 sequence (Q9NR22 whole entry): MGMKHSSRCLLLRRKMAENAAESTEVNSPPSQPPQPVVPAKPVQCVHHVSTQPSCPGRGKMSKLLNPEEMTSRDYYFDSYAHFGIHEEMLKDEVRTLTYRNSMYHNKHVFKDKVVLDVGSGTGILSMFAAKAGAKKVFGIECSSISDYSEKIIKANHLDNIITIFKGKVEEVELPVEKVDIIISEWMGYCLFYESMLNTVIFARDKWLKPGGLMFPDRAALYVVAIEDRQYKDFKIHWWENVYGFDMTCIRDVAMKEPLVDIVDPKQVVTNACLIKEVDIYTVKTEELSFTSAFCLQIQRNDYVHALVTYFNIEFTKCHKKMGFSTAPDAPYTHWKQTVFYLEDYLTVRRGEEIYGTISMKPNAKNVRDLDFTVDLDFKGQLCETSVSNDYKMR
Protocol: as §5
(§8) The selectivity assay was performed as previously described [31]. The effect of test compounds on the methyltransferase activities of Euchromatic histone-lysine N-methyltransferase 2 (G9a), G9a-like protein (GLP), Suppressor of variegation 3-9 homolog (SUV39H)1, SUV39H2, SUV420H1, SUV420H2, SET domain (SETD)2, SETD8, SETD bifurcated 1 (SETDB1), SETD7, Mixed-lineage leukemia (MLL)1 trimeric complex, MLL3 pentameric complex, Enhancer of zeste homolog (EZH)2 trimeric complex, PRMT1, PRMT3, PRMT4, PRMT5/Methylosome protein (MEP)50 complex, PRMT6, PRMT7, PRMT8, PRMT9, PR domain zinc finger protein (PRDM)9, SET and MYND domain-containing (SMYD)2, SMYD3, and DNA methyltransferase (DNMT)1 was assessed by monitoring the incorporation of a tritium-labeled methyl group into substrates with the scintillation proximity assay [32]. […]

PRMT7 = molecular target: T3, PRMT7 (Homo sapiens, UniProt Q9NVM4); assay: PRMT7 methyltransferase scintillation proximity assay; type: biochemical
T3 construct: 1–692; made in house
T3 sequence (Q9NVM4 whole entry): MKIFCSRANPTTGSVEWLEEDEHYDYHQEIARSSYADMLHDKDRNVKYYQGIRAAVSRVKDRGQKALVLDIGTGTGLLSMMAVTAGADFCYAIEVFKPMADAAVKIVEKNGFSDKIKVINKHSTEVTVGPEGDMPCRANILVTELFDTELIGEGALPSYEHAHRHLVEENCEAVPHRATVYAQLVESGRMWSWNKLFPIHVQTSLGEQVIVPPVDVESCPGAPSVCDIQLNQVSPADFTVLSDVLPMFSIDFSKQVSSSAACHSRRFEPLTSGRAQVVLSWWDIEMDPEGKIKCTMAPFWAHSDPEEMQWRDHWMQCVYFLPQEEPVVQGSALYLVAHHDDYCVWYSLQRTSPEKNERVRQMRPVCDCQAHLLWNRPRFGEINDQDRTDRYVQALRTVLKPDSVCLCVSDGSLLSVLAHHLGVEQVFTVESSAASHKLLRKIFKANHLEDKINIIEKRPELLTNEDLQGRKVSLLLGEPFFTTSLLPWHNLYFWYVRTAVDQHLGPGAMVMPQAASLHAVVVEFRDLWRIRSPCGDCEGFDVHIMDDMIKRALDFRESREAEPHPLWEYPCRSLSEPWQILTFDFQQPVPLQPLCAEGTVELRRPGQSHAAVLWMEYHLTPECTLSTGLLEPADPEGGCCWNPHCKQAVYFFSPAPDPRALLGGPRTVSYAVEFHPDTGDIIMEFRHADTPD
Protocol: as §5, §8

NCI-H929 cells = assay: Cell cycle analysis by flow cytometry (DNA content); type: cell-based, human; settings: for G1 cell fraction / G2-M cell fraction / S cell fraction / sub-G1 cell fraction: NCI-H929, 1 μM, 72 h
Protocol: To measure DNA content for cell cycle distribution analysis, cells were incubated with 70% ethanol/PBS (v/v) overnight. Fixed cells were stained with propidium iodide and analyzed on a FACS LSRFortessa system (BD Biosciences, Franklin Lakes, NJ, USA).

[4] = molecular target: T4, PRMT5/Methylosome protein (MEP)50 complex (Homo sapiens, UniProt O14744); assay: PRMT5 methyltransferase scintillation proximity assay; type: biochemical
T4 construct: 1–637 (PRMT5); made in house
T4 sequence (O14744 whole entry): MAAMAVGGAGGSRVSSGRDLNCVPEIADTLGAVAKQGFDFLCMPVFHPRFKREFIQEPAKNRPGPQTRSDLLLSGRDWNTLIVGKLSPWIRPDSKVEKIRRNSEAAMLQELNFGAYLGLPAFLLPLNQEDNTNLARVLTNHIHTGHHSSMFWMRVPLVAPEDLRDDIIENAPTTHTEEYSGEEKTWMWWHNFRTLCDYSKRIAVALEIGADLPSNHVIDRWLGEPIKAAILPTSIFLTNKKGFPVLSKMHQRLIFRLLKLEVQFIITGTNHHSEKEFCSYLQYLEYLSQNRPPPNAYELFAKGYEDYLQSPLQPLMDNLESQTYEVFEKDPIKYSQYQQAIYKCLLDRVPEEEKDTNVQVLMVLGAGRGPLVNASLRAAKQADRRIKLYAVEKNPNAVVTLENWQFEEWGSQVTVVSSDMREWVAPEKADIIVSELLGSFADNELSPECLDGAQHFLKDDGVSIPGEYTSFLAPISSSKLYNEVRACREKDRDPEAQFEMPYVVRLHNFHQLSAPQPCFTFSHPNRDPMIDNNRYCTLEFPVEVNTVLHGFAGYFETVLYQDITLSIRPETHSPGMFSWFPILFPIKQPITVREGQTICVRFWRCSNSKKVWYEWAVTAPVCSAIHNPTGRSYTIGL
T4 sequence (Q9BQA1 whole entry partner): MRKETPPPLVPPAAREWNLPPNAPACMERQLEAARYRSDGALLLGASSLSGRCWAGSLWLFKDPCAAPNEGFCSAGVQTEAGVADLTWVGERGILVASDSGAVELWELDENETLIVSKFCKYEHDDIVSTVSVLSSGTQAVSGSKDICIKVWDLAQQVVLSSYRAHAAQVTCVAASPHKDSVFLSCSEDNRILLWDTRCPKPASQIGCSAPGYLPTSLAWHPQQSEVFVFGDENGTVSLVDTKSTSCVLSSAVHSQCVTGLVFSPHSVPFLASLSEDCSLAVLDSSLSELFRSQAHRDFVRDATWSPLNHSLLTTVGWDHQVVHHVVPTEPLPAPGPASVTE
Protocol: as §5, §8

PRMT4 [5] = molecular target: T5, PRMT4 (Homo sapiens, UniProt Q86X55); assay: PRMT4 methyltransferase scintillation proximity assay; type: biochemical; parameters: 1–608; made in house
T5 sequence (Q86X55 1-608): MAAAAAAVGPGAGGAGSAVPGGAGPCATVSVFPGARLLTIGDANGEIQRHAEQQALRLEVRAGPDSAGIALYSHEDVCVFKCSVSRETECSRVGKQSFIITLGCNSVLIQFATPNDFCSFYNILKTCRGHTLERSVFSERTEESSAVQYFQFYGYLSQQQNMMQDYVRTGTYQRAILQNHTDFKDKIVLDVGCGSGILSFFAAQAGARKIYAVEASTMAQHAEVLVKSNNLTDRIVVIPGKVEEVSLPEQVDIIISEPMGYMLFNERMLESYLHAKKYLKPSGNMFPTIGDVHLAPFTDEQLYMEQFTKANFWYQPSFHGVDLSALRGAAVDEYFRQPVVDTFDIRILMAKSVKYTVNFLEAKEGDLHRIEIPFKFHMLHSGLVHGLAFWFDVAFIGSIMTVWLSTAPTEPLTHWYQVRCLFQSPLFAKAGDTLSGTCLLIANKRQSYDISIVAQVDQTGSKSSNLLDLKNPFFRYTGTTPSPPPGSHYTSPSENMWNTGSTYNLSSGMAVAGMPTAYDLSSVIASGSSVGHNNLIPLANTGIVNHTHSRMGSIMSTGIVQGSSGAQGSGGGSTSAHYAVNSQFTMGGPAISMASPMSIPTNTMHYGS
Protocol: as §5

[6] = test system: dimethylation of MED12 (PRMT4 substrate); assay: MED12 dimethylation in HEK293 cells, western blotting; type: cell-based, human; settings: 3 days
Protocol: as §6, §7

[7] = test system: BAF155 dimethylation in NCI-H929 cells; assay: BAF155 dimethylation in MM cells, western blotting; type: cell-based, human
Protocol: as §4

PRMT6 = molecular target: T6, PRMT6 (Homo sapiens, UniProt Q96LA8); assay: PRMT6 methyltransferase scintillation proximity assay; type: biochemical
T6 construct: 1–375; made in house
T6 sequence (Q96LA8 whole entry): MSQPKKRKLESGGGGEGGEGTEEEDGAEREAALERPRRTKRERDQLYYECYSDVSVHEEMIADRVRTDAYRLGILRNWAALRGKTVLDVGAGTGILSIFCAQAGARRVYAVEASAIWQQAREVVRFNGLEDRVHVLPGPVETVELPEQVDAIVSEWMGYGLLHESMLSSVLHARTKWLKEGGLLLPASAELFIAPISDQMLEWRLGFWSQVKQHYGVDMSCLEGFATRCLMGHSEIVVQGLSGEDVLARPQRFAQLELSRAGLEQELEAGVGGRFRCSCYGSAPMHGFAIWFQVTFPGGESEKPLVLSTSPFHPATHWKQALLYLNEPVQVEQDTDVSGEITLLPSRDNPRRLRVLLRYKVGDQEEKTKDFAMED
Protocol: as §5, §8

PRMT3 = molecular target: T7, PRMT3 (Homo sapiens, UniProt O60678); assay: PRMT3 methyltransferase scintillation proximity assay; type: biochemical
T7 construct: 106–426 (within the); made in house
T7 sequence (O60678 211-531 limits assumed): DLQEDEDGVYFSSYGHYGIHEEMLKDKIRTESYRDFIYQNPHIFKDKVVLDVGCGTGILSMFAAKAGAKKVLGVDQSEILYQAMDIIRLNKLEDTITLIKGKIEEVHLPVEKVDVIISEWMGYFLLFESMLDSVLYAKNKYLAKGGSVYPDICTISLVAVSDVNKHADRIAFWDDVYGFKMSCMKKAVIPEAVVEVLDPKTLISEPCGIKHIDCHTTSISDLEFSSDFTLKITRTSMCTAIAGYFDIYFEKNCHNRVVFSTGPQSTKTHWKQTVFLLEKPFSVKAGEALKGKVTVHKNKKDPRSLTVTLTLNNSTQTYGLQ
Protocol: as §5, §8

PRMT9 = molecular target: T8, PRMT9 (Homo sapiens, UniProt Q6P2P2); assay: PRMT9 methyltransferase scintillation proximity assay; type: biochemical
T8 construct: 1–845; made in house
T8 sequence (Q6P2P2 whole entry): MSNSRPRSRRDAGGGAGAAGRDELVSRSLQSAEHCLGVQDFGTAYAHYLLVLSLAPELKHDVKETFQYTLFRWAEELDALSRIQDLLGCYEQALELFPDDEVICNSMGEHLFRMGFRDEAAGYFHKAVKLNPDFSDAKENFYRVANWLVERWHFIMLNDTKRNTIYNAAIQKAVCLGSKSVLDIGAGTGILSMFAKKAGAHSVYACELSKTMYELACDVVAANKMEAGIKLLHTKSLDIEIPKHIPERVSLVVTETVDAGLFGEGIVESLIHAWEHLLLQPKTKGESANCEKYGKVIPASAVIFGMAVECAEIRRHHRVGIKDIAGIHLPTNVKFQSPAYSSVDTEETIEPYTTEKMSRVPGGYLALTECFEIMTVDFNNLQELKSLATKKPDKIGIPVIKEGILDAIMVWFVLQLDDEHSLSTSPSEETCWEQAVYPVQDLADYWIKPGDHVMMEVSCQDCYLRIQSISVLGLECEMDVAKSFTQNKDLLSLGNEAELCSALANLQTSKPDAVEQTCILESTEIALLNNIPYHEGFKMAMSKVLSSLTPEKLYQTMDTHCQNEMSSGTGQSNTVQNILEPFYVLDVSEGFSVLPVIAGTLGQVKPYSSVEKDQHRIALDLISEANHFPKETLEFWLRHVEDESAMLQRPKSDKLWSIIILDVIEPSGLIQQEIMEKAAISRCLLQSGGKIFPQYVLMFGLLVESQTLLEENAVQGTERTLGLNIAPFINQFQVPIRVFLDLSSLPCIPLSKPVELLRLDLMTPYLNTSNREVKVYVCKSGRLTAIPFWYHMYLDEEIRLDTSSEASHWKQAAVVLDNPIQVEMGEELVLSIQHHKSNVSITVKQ
Protocol: as §5

[8] = test system: 24 protein lysine methyltransferases and DNA methyltransferases; assay: Selectivity assay against other methyltransferases; type: biochemical; settings: for inhibition of other methyltransferases: tested at 1 and 10 μM
Protocol: The selectivity assay was performed as previously described [31]. The effect of test compounds on the methyltransferase activities of Euchromatic histone-lysine N-methyltransferase 2 (G9a), G9a-like protein (GLP), Suppressor of variegation 3-9 homolog (SUV39H)1, SUV39H2, SUV420H1, SUV420H2, SET domain (SETD)2, SETD8, SETD bifurcated 1 (SETDB1), SETD7, Mixed-lineage leukemia (MLL)1 trimeric complex, MLL3 pentameric complex, Enhancer of zeste homolog (EZH)2 trimeric complex, PRMT1, PRMT3, PRMT4, PRMT5/Methylosome protein (MEP)50 complex, PRMT6, PRMT7, PRMT8, PRMT9, PR domain zinc finger protein (PRDM)9, SET and MYND domain-containing (SMYD)2, SMYD3, and DNA methyltransferase (DNMT)1 was assessed by monitoring the incorporation of a tritium-labeled methyl group into substrates with the scintillation proximity assay [32]. Briefly, a 10-μl reaction containing ^3H-SAM and substrate at concentrations close to the apparent Km values for each enzyme was prepared. Two concentrations (1 and 10 μM) of compound were tested. The reactions were quenched with 10 μl of 7.5 M guanidine hydrochloride; 180 μl of 20 mM Tris buffer (pH 8.0) were added, and the mixture was transferred to a 96-well FlashPlate followed by incubation for 1 h. The counts per minute (CPM) was measured on a TopCount plate reader; the CPM in the absence of compound or enzyme was defined as 100% activity and background (0%), respectively, for each dataset.

K562 cells = assay: K562 cell viability, SYTOX Blue flow cytometry; type: cell-based; settings: 3 μM TP-064, 5 μM SGC0946, 6 days; preliminary experiments
Protocol: (§1) Chemiluminescence was measured with a microplate reader. […] K562 cells were cultured in RPMI 10% FBS.
growth. […] The inhibitors were topped up after
3 days. After 6 days, cells were stained with SYTOX Blue dead cell stain and the number of viable cells was determined by flow cytometry.
Data are presented as mean ± SD (n = 5). The predicted additive effect was calculated as Fa + Fb × (1 − Fa), where Fa and Fb are the
(§2) (1 picture or pasted object on this page, not shown here)

PRMT4 [9] = molecular target: T5, PRMT4; assay: Substrate competition assay (mechanism of action); type: biochemical; parameters: 1–608; made in house; settings: versus SAM and substrate peptide
Protocol: The substrate competition assays were performed by measuring IC50 values at various concentrations of one substrate (e.g., peptide) and at saturating concentrations of the other (e.g., SAM) and vice versa, as previously described.

PRMT4 [10] = molecular target: T5, PRMT4; assay: Differential static light scattering (DSLS) binding; settings: at 80 μM
Protocol: DSLS was performed as previously described [34] using 100 mM HEPES (pH 7.5), 150 mM NaCl, 3% DMSO, and 0.4 mg ml^−1 (6 μM) protein in a 10-μl reaction volume.

[11] = test system: acute myeloid leukemia, colon cancer, or lung cancer cell lines; assay: Proliferation of non-MM cancer cell lines, 6 days; type: cell-based, human
Protocol: as §1
6 days. Relative ATP concentration was calculated based on chemiluminescence relative to the 0 nM value (control). Data are presented as
mean ± standard deviation (n = 3).
as §2

[12] = test system: panel of 89 (69 solid and 20 hematologic) cancer cell lines; assay: Cell panel viability, CellTiter-Glo, 3 days; type: cell-based, human; settings: 3 μM
Protocol: In addition, to further validate the role of PRMT4 in MM cell growth, we performed PRMT4 knockdown in NCI-H929 cells and observed PRMT4 knockdown-induced growth inhibition (Supplementary Figure 5). Thus, pharmacological inhibition of PRMT4 by small molecules may be a therapeutic option for some MM treatment.
(§3) Red dots indicate MM cell lines. […] Data are presented as mean ± standard deviation (n = 3). IC50 values were calculated by nonlinear regression analysis of % inhibition. […] ATP concentration was calculated based on chemiluminescence values relative to the 0 nM value (control) in each cell line. PRMT4 mRNA expression levels in MM cells were determined with the Ion Ampliseq transcriptome assay and were normalized to that of glyceraldehyde 3-phosphate dehydrogenase (GAPDH) in each cell line.
as §1

KMS-11 cells = assay: MM cell growth, CellTiter-Glo, 6 days; type: cell-based, human; settings: KMS-11, 6 days
Protocol: as §3, §1

MM.1S cells = assay: MM cell growth, CellTiter-Glo, 6 days; type: cell-based, human
Protocol: as §3, §1

KMS-12PE cells = assay: MM cell growth, CellTiter-Glo, 6 days; type: cell-based, human
Protocol: as §3, §1

KMS-27 cells = assay: MM cell growth, CellTiter-Glo, 6 days; type: cell-based, human; settings: KMS-27, 6 days
Protocol: as §3, §1

KMS-12BM cells = assay: MM cell growth, CellTiter-Glo, 6 days; type: cell-based, human
Protocol: as §3, §1

KMS-26 cells = assay: MM cell growth, CellTiter-Glo, 6 days; type: cell-based, human; settings: KMS-26, 6 days
Protocol: as §3, §1

MM.1R cells = assay: MM cell growth, CellTiter-Glo, 6 days; type: cell-based, human
Protocol: as §3, §1

RPMI8226 cells = assay: MM cell growth, CellTiter-Glo, 6 days; type: cell-based, human; settings: RPMI8226, 6 days
Protocol: as §3, §1

KMS-28BM cells = assay: MM cell growth, CellTiter-Glo, 6 days; type: cell-based, human
Protocol: as §3, §1

U266B1 cells = assay: MM cell growth, CellTiter-Glo, 6 days; type: cell-based, human; settings: U266B1, 6 days
Protocol: as §3, §1

KMS-20 cells = assay: MM cell growth, CellTiter-Glo, 6 days; type: cell-based, human; settings: KMS-20, 6 days
Protocol: as §3, §1

SMILES: COCCN1CCC(c2cc(CN(C)C(=O)c3cccc(Oc4ccccc4)c3)ccn2)CC1 [TP-064N, N-((2-(1-(2-methoxyethyl)piperidin-4-yl)pyridin-4-yl)methyl)-N-methyl-3-phenoxybenzamide]
- effect on dimethyl-BAF155 level ([1]; KMS-27, 72 h): no effect
- IC50 (PRMT1): > 10000 nM
- effect on dimethyl-BAF155 level ([2]; U266B1, 72 h): no effect
- inhibition of BAF155 dimethylation ([3]; up to 10 μM): did not inhibit
- IC50 (PRMT8): > 10000 nM
- IC50 (PRMT7): > 10000 nM
- effect on cell cycle (NCI-H929 cells; NCI-H929): no/little effect
- G1 cell fraction (NCI-H929 cells): 53.2%
- G2-M cell fraction (NCI-H929 cells): 24.1%
- S cell fraction (NCI-H929 cells): 13.2%
- sub-G1 cell fraction (NCI-H929 cells): 5.14%
- IC50 [4]: > 10000 nM
- IC50 (PRMT4 [5]): 2500 ± 600 nM
- inhibition of MED12 dimethylation ([6]; up to 10 μM): did not inhibit
- effect on dimethyl-BAF155 level ([7]; NCI-H929, 72 h): no effect
- IC50 (PRMT6): > 10000 nM
- IC50 (PRMT3): > 10000 nM
- IC50 (PRMT9): > 10000 nM
- IC50 [8]: > 10000 nM
- inhibition of other methyltransferases [8]: completely inactive

SMILES: CNCCN1CCC(c2cc(CN(C)C(=O)c3cccc(Oc4ccccc4)c3)ccn2)CC1 [TP-064, N-methyl-N-((2-(1-(2-(methylamino)ethyl)piperidin-4-yl)pyridin-4-yl)methyl)-3-phenoxybenzamide]
- IC50 ([1]; Homo sapiens, 72 h, KMS-27, 3 days, read-out: methyl / total BAF155 IC50): 400 nM
- IC50 ([2]; Homo sapiens, 72 h, U266B1, 3 days, read-out: methyl / total BAF155 IC50): 486 nM
- cytotoxic response of K562 cells (K562 cells): weak response
- IC50 ([3]; Homo sapiens, 72 h): 340 ± 30 nM
- mode of inhibition (PRMT4 [9]): non-competitive
- IC50 (PRMT8): 8100 ± 600 nM
- IC50 (PRMT7): > 10000 nM
- increase of aggregation temperature (Tagg), DSLS (PRMT4 [10]): about 6 °C
- G1 cell fraction (NCI-H929 cells): 63.5%
- G2-M cell fraction (NCI-H929 cells): 20.2%
- S cell fraction (NCI-H929 cells): 7.89%
- sub-G1 cell fraction (NCI-H929 cells): 5.73%
- IC50 [4]: > 10000 nM
- IC50 ([6]; Homo sapiens, 72 h): 43 ± 10 nM
- anti-proliferative activity [11]: did not exhibit; also recorded: no effect
- growth inhibition in cancer cell panel [12]: inhibited the growth of a subset of MM cell lines
- IC50 ([7]; Homo sapiens, 72 h, NCI-H929, 3 days, read-out: methyl / total BAF155 IC50): 716 nM
- IC50 (PRMT6): 1300 ± 400 nM
- IC50 (PRMT3): > 10000 nM
- IC50 (PRMT9): > 10000 nM
- Growth at 3 μM (%) (KMS-11 cells): -17.2%
- Growth at 3 μM (%) (MM.1S cells): -31.0%
- Growth at 3 μM (%) (KMS-12PE cells): -4.4%
- Growth at 3 μM (%) (KMS-27 cells): -17.2%
- Growth at 3 μM (%) (KMS-12BM cells): -8.2%
- Growth at 3 μM (%) (KMS-26 cells): -19.5%
- Growth at 3 μM (%) (MM.1R cells): -37.8%
- IC50 (RPMI8226 cells; Homo sapiens, RPMI-8226, 144 h): 886 nM
- Growth at 3 μM (%) (RPMI8226 cells): -58.3%
- Growth at 3 μM (%) (KMS-28BM cells): -24.1%
- Growth at 3 μM (%) (U266B1 cells): -24.4%
- Growth at 3 μM (%) (KMS-20 cells): -22.5%
- IC50 [8]: > 10000 nM
- inhibition of other methyltransferases [8]: did not inhibit
